Assay results as given in US20240124510A1, “Cyclic Glycoaminoacid Derivatives” (TFCHEM, priority 2021, published 2024).
Several values for one entry are separate records, joined by “and”; a condition that tells them apart may be missing. Equal entries are not always repeated. Where two headings read alike, the source gives them in different places.

Assays:
[1] = test system: SOD2 gene expression in aged human fibroblasts; experiment: SOD2 gene expression in aged human fibroblasts; type: cell-based; details: 6 mg/ml
[2] = test system: procollagen I; experiment: Extracellular secretion of procollagen I by preadipocytes in inflammatory condition (ELISA); type: cell-based, human; details: for Procollagen I secretion, Mean / Procollagen I secretion, Values: normalized by cells number (DAPI); for Procollagen I secretion, Values: individual values; for Procollagen I secretion compared to the AcMC control condition fixed at 100%: preadipocytes
Protocol: (§1) Preadipocytes have been isolated from human female hypodermis (body mass index <30 kg/m2 and <45 years old). Preadipocytes have been cultured for 24 h in 100 μl of DMEM-10% Fetal Bovine Serum (FBS) in 96-well plates. Then cells were treated to induce their differentiation in a classical or an inflammatory environment for 13 days.
(§2) To induce the preadipocytes differentiation cells were incubated in a proadipogenic cocktail (PAC) including insulin, glucocorticoid, 3-isobutyl-1-methylxanthine (IBMX), and thiazolinedione in DMEM.
(§3) To induce a fibro-inflammatory environment, cells were treated with an activated human macrophage-conditioned medium (AcMC) prepared in RPMI medium. A treatment with Dexamethasone (DXM) at 100 nM was used as anti-inflammatory response control. At D0: preadipocytes have been treated in the following conditions: • “Undifferentiation”: DMEM+¼ RPMI medium • “Differentiation”: PAC+¼ RPMI medium • “AcMC” i.e. inflammatory condition: PAC+¼ AcMC • “AcMC+DXM”: PAC+[…] AcMC+anti-inflammatory DXM at 100 nM • “AcMc+compounds”: PAC+14 AcMC+compounds to be tested
(§4) All conditions have been performed in triplicate. The medium has been changed every 2 days for 13 days.
(§5) At D14: during the last 24 h of culture, the medium has been replaced by DMEM/F12 medium in all conditions, to collect cells' secretions.
(§6) After 13 days, the 24 h culture media of the different conditions have been collected at the end of the treatment period. The concentrations of IL-6, procollagen I and MCP1 have been evaluated by ELISA assays using specific kits (for IL-6: DY206, DuoSet ELISA, R&D Systems; for Procollagen I: DY6220-05, DuoSet ELISA, R&D Systems; for MCP1: DY279-05 DuoSet ELISA, R&D Systems) according to the manufacture's recommendations. Values have been normalized to the cell number determined by DAPI staining.
Extracellular secretions of procollagen I by preadipocytes in inflammatory condition Quantity of procollagen secreted in medium was measured and normalized by cell number in each culture condition. Data are represented in percentage of proinflammatory control conditions (AcMC condition).

[3] = test system: IL-6; experiment: Extracellular secretion of IL-6 by preadipocytes in inflammatory condition (ELISA); type: cell-based, human; details: for IL-6 secretion, Mean / IL-6 secretion, Values: normalized by cells number (DAPI); for IL-6 secretion, Values: individual values; for IL-6 secreted, normalized by cell number, in % of AcMC condition: preadipocytes/adipocytes
Protocol: as §1, §2, §3, §4, §5, §6
Quantity of IL-6 secreted in medium was measured and was normalized by cell number in each culture condition. Data are represented in percentage of proinflammatory control condition (AcMC condition).

[4] = test system: normal human dermal fibroblasts (NHDF); experiment: Protection of NHDF under UVA irradiation, MTT reduction assay; type: cell-based
Protocol: The protective effects of compound 6 was assessed in normal human dermal fibroblasts (NHDF). The viability of UVA-irradiated NHDF using a standard MTT reduction assay was tested. Prior to these assays, a preliminary cytotoxicity assay was performed on NHDF, using a standard WST-8 reduction assay and morphological observations with a microscope, in order to determine the concentrations to be tested.
• Cell type: NHDF, Bioalternatives reference PF2 used at the 8th passage • Culture conditions: 37° C., 5% CO2 • Culture medium: DMEM supplemented with L-glutamine 2 mM, Penicillin 50 U/ml • Streptomycin 50 μg/ml, Fetal calf serum (FCS) 10% • Irradiation medium: EBSS supplemented with CaCl2 0.2 g/l, MgSO4 0.2 g/l • Test compound: the compound 6 (MM=356.3 g/mol) was diluted in culture medium at final concentration of 1.25 and 2.5 mg/ml
Fibroblasts were seeded in 96-well plates and cultured in culture medium for 24 hours. The medium was then replaced by culture medium containing or not (irradiated control) the test compounds and the cells were pre-incubated for 24 hours. After pre-incubation, the medium was removed and replaced by irradiation medium and the cells were irradiated with 35 J/cm^2. The lamp used was a SOL500 Sun Simulator equipped with an H1 filter (Dr. Hönle, AG). After irradiation, the medium was removed and replaced by assay medium containing or not (irradiated control) the test compounds and the cells were incubated for 24 hours. A non-irradiated control condition was performed in parallel. All experimental conditions were performed in n=5, except for the control conditions in n=12.
At the end of incubation, the cells were incubated with MTT (tetrazolium salt) reduced in blue formazan crystals by succinate dehydrogenase (mitochondrial enzyme). This transformation is proportional to the enzyme activity. After cell dissociation and formazan crystal solubilization using DMSO, the optical density (OD) of the extracts at 540 nm, proportional to the number of living cells and their metabolic activity, was recorded with a microplate reader (VERSAmax, Molecular Devices).
Raw data were analyzed using Microsoft Excel© software. The inter-group comparisons were performed by an unpaired Student's t-test.
The standard error of the mean (sem) is a measure of how far the sample mean is likely to be from the true population mean. The sem is calculated as the standard deviation (sd) divided by the square root of sample size (n). Standard error of the mean: sem=sd/√n Percentage of viability: viability (%)=(OD sample/OD control)×100
The cell viability (OD 540 nm) from irradiated culture added with tested compound was compared with irradiated control culture and the percentage of viability was calculated.

[5] = test system: human preadipocytes; experiment: Lipid index (AdipoRed area*intensity, imaging) in preadipocytes in inflammatory condition; type: cell-based; details: for Lipid Index (Adipored area * intensity), Mean / Lipid Index (Adipored area * intensity), Values: normalized by cells number (DAPI); for Lipid Index (Adipored area * intensity), Values: individual values
Protocol: as §1, §2, §3, §4
A second analysis of lipid accumulation was performed with an imaging acquisition and quantification. The area and the intensity of the lipid droplets were evaluated and quantified for more accurate data. An index was calculated (area*intensity of the AdipoRed staining) and normalized by cells number.
(§7) Lipid accumulation and Lipid index were evaluated for each condition. Data are represented in percentage of proinflammatory control condition (AcMC condition).

[6] = test system: human preadipocytes; experiment: Total lipid accumulation (AdipoRed staining) in preadipocytes/adipocytes in inflammatory condition; type: cell-based; details: for Total Lipid Accumulation (Adipored staining), Mean / Total Lipid Accumulation (Adipored staining), Values: end of the culture; for Total Lipid Accumulation (Adipored staining), Values: individual values
Protocol: as §1, §2, §3, §4
After 14 days of culture, preadipocytes have been fixed with 4% paraformaldehyde and then stained by AdipoRed™ at room temperature to reveal the intracellular lipid droplets. Quantification of lipid accumulation has been performed by fluorescence intensity measurements using the spectrophotometer Spark (TECAN).
as §7

With `N[C@H]1CCCN(CC(F)(F)[C@]2(O)O[C@H](CO)[C@H](O)[C@H](O)[C@H]2O)C1=O` [Compound 6] the “increased SOD2 gene expression compared to the control” value [1] was 204%, the “Procollagen I secretion, Mean” value ([2]; AcMC + 1 mg/ml) was 49.9 % of AcMC condition and the “Procollagen I secretion, Values” ([2]; AcMC + 1 mg/ml) was 39.3 % of AcMC condition and 57.7 % of AcMC condition and 52.7 % of AcMC condition. The “Procollagen I secretion, Mean” value ([2]; AcMC + 2 mg/ml) was 46.2 % of AcMC condition, the “Procollagen I secretion, Values” ([2]; AcMC + 2 mg/ml) was 47.0 % of AcMC condition and 40.2 % of AcMC condition and 51.2 % of AcMC condition and the “Procollagen I secretion compared to the AcMC control condition fixed at 100%” value ([2]; 1 mg/ml) was 49.9%. The “Procollagen I secretion compared to the AcMC control condition fixed at 100%” value ([2]; 2 mg/ml) was 46.2%, the “IL-6 secretion, Mean” value ([3]; AcMC + 1 mg/ml) was 84.0 % of AcMC condition and the “IL-6 secretion, Values” ([3]; AcMC + 1 mg/ml) was 66.1 % of AcMC condition and 95.1 % of AcMC condition and 90.8 % of AcMC condition. The “IL-6 secretion, Mean” value ([3]; AcMC + 2 mg/ml) was 28.1 % of AcMC condition, the “IL-6 secretion, Values” ([3]; AcMC + 2 mg/ml) was 25.5 % of AcMC condition and 26.8 % of AcMC condition and 31.9 % of AcMC condition and the “IL-6 secreted, normalized by cell number, in % of AcMC condition” value ([3]; 1 mg/ml) was 84%. For the same compound, the “IL-6 secreted, normalized by cell number, in % of AcMC condition” value ([3]; 2 mg/ml) was 28.1%, the “IL-6 secreted, normalized by cell number, in % of AcMC condition” value ([3]; 2 mg/ml, listed as compound 6) was 28.1% and 28% and the “Mean OD (540 nm)” value ([4]; 1.25 mg/ml, UVA 35 J/cm^2, MTT) was 0.13. For the same compound, the “Mean OD (540 nm)” value ([4]; 2.5 mg/ml, UVA 35 J/cm^2, MTT) was 0.15, the viability at 1250 µg/mL ([4]; Homo sapiens, light or radiation study, 1.25 mg/ml, UVA 35 J/cm^2, MTT, read-out: % Irradiated control (viability)) was 116% and the viability at 2500 µg/mL ([4]; Homo sapiens, light or radiation study, 2.5 mg/ml, UVA 35 J/cm^2, MTT, read-out: % Irradiated control (viability)) was 130%. The viability at 2500 µg/mL ([4]; Homo sapiens, light or radiation study, UVA 35 J/cm2, 2.5 mg/ml, read-out: Cell viability, % of the irradiated control) was 130%, the “Lipid Index (Adipored area * intensity), Mean” value ([5]; AcMC + 1 mg/ml) was 158.6 % of AcMC condition and the “Lipid Index (Adipored area * intensity), Values” ([5]; AcMC + 1 mg/ml) was 150.8 % of AcMC condition and 156.6 % of AcMC condition and 168.4 % of AcMC condition. For the same compound, the “Lipid Index (Adipored area * intensity), Mean” value ([5]; AcMC + 2 mg/ml) was 297.9 % of AcMC condition, the “Lipid Index (Adipored area * intensity), Values” ([5]; AcMC + 2 mg/ml) was 286.0 % of AcMC condition and 338.7 % of AcMC condition and 269.0 % of AcMC condition and the “Lipid index compared to AcMC control” value ([5]; both concentration, inflammatory media) was “increased”. The “Total Lipid Accumulation (Adipored staining), Mean” value ([6]; AcMC + 1 mg/ml) was 126.8 % of AcMC condition, the “Total Lipid Accumulation (Adipored staining), Values” ([6]; AcMC + 1 mg/ml) was 130.3 % of AcMC condition and 123.6 % of AcMC condition and 126.5 % of AcMC condition and the “Total Lipid Accumulation (Adipored staining), Mean” value ([6]; AcMC + 2 mg/ml) was 137.0 % of AcMC condition. For the same compound, the “Total Lipid Accumulation (Adipored staining), Values” ([6]; AcMC + 2 mg/ml) was 137.2 % of AcMC condition and 132.3 % of AcMC condition and 141.4 % of AcMC condition and the “Total lipid synthesis (lipid accumulation) in the inflammatory media” value ([6]; both concentration) was “increase lipid synthesis”.
